The results in this text go back to patent US20250236616A1, “IMMUNOMODULATING AZALIDES” (Zoetis Services LLC, priority 2021, published 2025).

Experiment [1] relates to BRD pathogens, M. haemolytica and P. multocida. The experiment in a line: MIC screening panel, BRD pathogens (CLSI broth micro-dilution). The class given is cell-based. The note with it: BRD pathogenic strains / target pathogens; read-out: MIC. In short, it runs like this: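 MICs were determined by CLSI broth micro-dilution in cation-adjusted Mueller Hinton Broth at about 5×10^5 CFU/mL, with QC strains included. Incubation was 18-22 h at 35-37° C. in air, 5% CO2 or anaerobically (up to 48 h) depending on strain. BRD pathogens were first tested at a top concentration of 64 μg/mL in an eleven-point dilution series.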

Experiment [2] deals with H. somni. Kind of experiment: MIC, H. somni strains. The class given is cell-based. The note with it: lung isolates at necropsy, natural BRD study, n=25. An excerpt: Primary screening of the compounds of the invention included the evaluation of antibacterial activity of analogs through determination of microbial inhibition concentration (MIC) as per CLSI guidelines. The screening panel included the relevant BRD pathogens: 1) M. haemolytica (e.g., 12726, 46571 and 49023, all AHDRCC; and 33396 (ATCC)); and 2) P. multocida (e.g., 34135 and 46572 (both AHDRCC) and 43137 (ATCC)). In some instances, H. somni (A700025K) pathogens were also included in the screening panel. The AHDRCC strains originated from the Zoetis BRD/SRD surveillance program and refer to the Animal Health Development and Research Culture Collection. In addition, the screen assessed S. aureus (29213 ATCC) as a representative Gram-positive isolate, E.faecalis (19433 ATCC) as a commensal gram-positive gastrointestinal bacterium and E. coli (100, 3110 and 25922 (ATCC)) for the evaluation of efflux potential. The screening panel BRD pathogens were assessed in determining antibacterial activity of the Formula (1) compounds.
All relevant BRD pathogens were initially screened at a top concentration of 64 μg/mL of a Formula (1) compound in an eleven-point dilution series. […] If an Example was purified further, the MICs moved […] essentially two dilutions across all strains tested in the screening panel.
In-Vitro MIC Model Compounds were analyzed for antibacterial activity against a panel of animal health specific gram-positive and gram-negative clinical strains by diluting compounds in DMSO to an appropriate stock concentration to determine the Minimal Inhibitory Concentration (MIC) via a semi-automated broth micro-dilution method (CLSI reference method) with QC strains and anti-microbial agent(s). Specifically, bacteria were grown overnight on TSA w/5% sheep blood agar plates and diluted in saline buffer to a McFarland Standard 0.5, then further diluted in cation-ion adjusted Mueller Hinton Broth to a final concentration of approximately 5×10^5 CFU/mL. 100 μL of inoculated media was added to 96-well plate(s) with 3 μL of serially diluted compound in each row. Depending on strain (see CLSI reference method), bacteria were incubated 18-22 hours at 35-37° C. in ambient air, with 5% CO2 or anaerobically (up to 48 hours).

In experiment [3] the test system is IL-6. Kind of experiment: IL-6 biomarker in bovine M. haemolytica challenge. The class given is in vivo. The procedure: Cytokine Detection—An MSD U-Plex cytokine assay was developed following the MSD U-Plex protocol guide and included biotinylated capture antibodies against: bovine Interleukin (IL)-1β (Biorad), bovine IL-6 (R&D Systems) and bovine tumor necrosis factor (TNF)-α (R&D Systems). The anti-IL-1β antibody was biotinylated using EZ-Link Sulfo-NHS-Biotin (Thermo Scientific) at a challenge ratio of 1:20 according to manufacturer instructions. Assay calibrators (Kingfisher) were diluted to a concentration of […] in control lithium heparin plasma, followed by 4-fold serial dilutions into plasma. The detection antibodies were sulfo-tagged following the MSD quick guide conjugation protocol using a challenge ratio of 1:20. Antibodies were used at the following concentrations: anti-IL-1β at 1 μg/mL, anti-IL-6 at 1 μg/mL and anti-TNF-α at 0.5 μg/mL. Cytokines were quantified according to manufacturer's instructions using a chemiluminescent readout. In brief, 0.5 mL of all biotinylated antibodies were diluted to 10 μg/mL with Diluent 100 and paired to their respective linkers by adding 750 μL of supplied Linker solution and incubated for 30 minutes followed by addition of Stop solution for another 30 minutes. […] Plates were washed a further three times before addition of 150 μL 2X Read buffer and read immediately on the SI6000 instrument (MSD). […]

Experiment [4] has as its system M. haemolytica challenge model. Kind of experiment: Separate study, M9 versus saline control: lung lesions and mortality. Format: in vivo. The note with it: 10 mg/kg; saline control 38.9%, p=0.025. The text has this: BRD infection as compared to saline (T01) in the M. haemolytica challenge model. […] Additionally, reduction of biomarkers consistent with the proposed mechanism were observed.

Usually MIC stands for the lowest concentration that inhibits growth of the organism.

For the compound `CCCNC[C@]1(O)[C@H](C)O[C@@H](O[C@H]2[C@H](C)[C@@H](O[C@@H]3O[C@H](C)C[C@H](NC)[C@H]3O)[C@](C)(O)C[C@@H](C)CN[C@H](C)[C@@H](O)[C@](C)(O)[C@@H](CC)OC(=O)[C@@H]2C)C[C@@]1(C)OC` [Example M9, (2R,3S,4R,5R,8R,10R,11R,12S,13S,14R)-2-ethyl-3,4, 10-trihydroxy-13-(((2R,4R,5S,6S)-5-hydroxy-4-methoxy-4,6-dimethyl-5-((propylamino)methyl)-tetrahydro-2H-pyran-2-yl)oxy)-11-(((2S,3R,4S,6R)-3-hydroxy-6-methyl-4-(methylamino)tetrahydro-2H-pyran-2-yl)oxy)-3,5,8,10,12,14-hexamethyl-1-oxa-6-azacyclopentadecan-15-one], the MIC in experiment [1] was at most 64 µg/mL. The “MIC Range” value in experiment [2] lay within 8 to 64 µg/mL. For the same compound, in experiment [3], the IL-6 levels entry is listed as “significantly reduced IL-6 levels”. In experiment [4], this compound displayed a Mortality of 13%.
